Data published in patent US20120190666A1, “Heteroaryl Compounds as PIKK Inhibitors” (Amgen Inc., priority 2009, published 2012).
pIC50: −log10 of the molar value.

What was measured:
[1] = molecular target: mTOR (Homo sapiens, UniProt P42345); assay: mTOR LanthaScreen (TR-FRET, phosphorylation of 4EBP1); assay type: biochemical; conditions: phosphorylation of GFP-4E-BP1, 10 μM ATP, 90 minutes
Method: The mTOR LanthaScreen is a TR-FRET assay measuring the phosphorylation of mTOR's substrate 4EBP1. 384 well compound plates were prepared containing 1 μl of compound per well starting at 5 mM and diluted 1:2 across the row, resulting in a 22 well serial dilution. 24 μl of assay buffer (Invitrogen, PV4794) with 2 mM DTT was added to the compound plate in rows 1-24 using the VELOCITY 11™ VPREP™ 384 ST resulting in a DMSO concentration of 4%. The compound plate was mixed and 2.5 μl of serially diluted compound or controls was added to the assay plate (Costar, 3658).
The assay was conducted on the PerkinElmer® FlexDrop PLUS. A 5 μl mix of 800 nM GFP-4E-BP1 (Invitrogen, PV4759) and 20 μM ATP (Amgen) was added to rows 1-24. 2.5 μl of 0.6 μg/ml of mTOR Enzyme (Amgen) was added to rows 1-23. 2.5 μl of assay buffer was added to row 24 for the low control. The final concentration of the compounds was 50 μM serially diluted to 23.84 pM in 1% DMSO. […] The final concentrations in the assay reagents were 400 nM GFP-4E-BP1, 10 μM of ATP and 0.15 μg/ml of mTOR enzyme. The compound, enzyme, and substrate were incubated for 90 minutes. At this point, 10 μl of stop solution was added (20 mM Tris, pH 7.5 (Invitrogen, 15567-027), 0.02% Sodium Azide (Teknova, S0208), 0.01% NP-40 (Roche, 11754599001), 20 mM EDTA (Invitrogen, 15575-038) and 4 nM of Tb-anti-p4E-BP1 (Invitrogen, PV4758)) for a final concentration of 2 nM of Tb-anti-p4E-BP1.
Sixty minutes later the plates were read on the PerkinElmer® EnVision™ 2103 Multilable Reader using the Excitation filter 340 nm and the Emission filters 520 nm and 495 nm.

[2] = molecular target: T1, PI3Kα (Homo sapiens, UniProt P42336); assay: In vitro PI3K AlphaScreen assay, PI3Kα; assay type: biochemical; conditions: PI(4,5)P2 substrate, 20 minutes at room temperature, read-out: P13Kalpha IC50 um
T1 construct: Full length p110 subunits of PI3K α, β and δ, N-terminally labeled with polyHis tag; polyHis (N); made in house; host or cells: Sf9 insect cells (baculovirus)
Method: The PI3K AlphaScreen® assay (PerkinElmer, Waltham, Mass.) measures the activity of a panel of four phosphoinositide 3-kinases: PI3Kα, PI3KIβ, PI3Kγ, and PI3Kδ. Each of these enzymes phosphorylates the 3′-hydroxyl group on phosphatidylinositiol (4,5)-bisphosphate (PIP2) to produce phosphatidylinositol (3,4,5)-trisphosphate (PIP3). This phosphorylation activity is measured using a GST-tagged PIP3 binding protein (Echelon Biosciences, Salt Lake City, Utah), an anti-GST-tagged Acceptor bead, and streptavidin-Donor bead. The interaction of biotinylated-PIP3 analog (IP4) and the PIP3 binding protein brings both Acceptor and Donor beads together producing, upon excitation of the Donor beads at 680 nm, a singlet oxygen species leading to the luminescent AlphaScreen® signal. When PIP3 is produced via phosphorylation of PIP2 by a PI3K, PIP3 competes with biotinylated-PIP3 analog (IP4) for binding to the PIP3 binding protein. In the absence of this interaction, proximity of the Donor and Acceptor beads is decreased, producing a loss of luminescent signal which is […] to PI3K activity. […] The enzyme reaction buffer is made using sterile water (Baxter, Deerfield, Ill.) and 50 mM Tris HCl pH 7, 14 mM MgCl2, 2 mM sodium cholate, and 100 mM NaCl. 2 mM DTT is added fresh the day of the experiment. The AlphaScreen® reaction buffer is made using sterile water and 10 mM Tris HCl pH 7.5, 150 mM NaCl, 0.10% Tween 20, and 30 mM EDTA. 1 mM DTT is added fresh the day of the experiment. The source plates for this assay are 384-well Greiner clear polypropylene plates containing test compounds at 5 mM and diluted 1:2 over 22 points. Columns 23 and 24 contain only DMSO as these are designated for positive and negative controls. Source plates are replicated into 384-well Optiplates (PerkinElmer, Waltham, Mass.), 0.5 μL/well, to make assay-ready plates. The different PI3K isoforms are each diluted in enzyme reaction buffer to 2× working solutions. PI3Kα is diluted to 1.6 nM, PI3Kβ is diluted to 0.8 nM, PI3Kγ is diluted to 15 nM, and PI3Kδ is diluted to 1.6 nM. Two different 2× substrate solutions are made in enzyme reaction buffer. In one solution, PI(4,5)P2 (Echelon Biosciences, Salt Lake City, Utah) is diluted to 10 μM and ATP is diluted to 20 μM. This solution is used in the assays testing PI3Kα and PI3Kβ. In a second solution, PI(4,5)P2 is diluted to 10 μM and ATP is diluted to 80 μM. This solution is used in the assays testing PI3Kγ and PI3Kδ. The AlphaScreen® reaction solutions are made using beads from the anti-GST AlphaScreen® kit (PerkinElmer, Waltham, Mass.). Two solutions are made in Alphascreen reaction buffer to 4× working concentrations. In one solution, biotinylated-IP4 (Echelon Biosciences, Salt Lake City, Utah) is diluted to 40 nM and streptavadin-Donor Beads are diluted to 80 μg/mL. In the second solution, PIP3-binding protein (Echelon Biosciences, Salt Lake City, Utah) is diluted to 40 nM and anti-GST-Acceptor Beads are diluted to 80 μg/mL. 10 μL/well of enzyme reaction buffer is added to Column 24 of the assay ready plates in place of enzyme. This is done for plates in the PI3Kα, β, and δ assays. Using a 384-well dispensing Multidrop (Titertek, Huntsville, Ala.), 10 μL/well of 2× enzyme (PI3Kα, β, δ) is added to Columns 1-23 of the appropriate assay ready plates (for PI3Kγ 10 μL is added to Columns 1-24). 10 μL/well of the appropriate substrate solution (the solution with 20 μM ATP for PI3Kα and β assays, and the solution with […] for PI3Kγ and δ assays) is then added to Columns 1-24 of the plates. Plates are then incubated at room temperature for 20 minutes. In the dark, 10 μL/well of the Donor Bead solution is added to Columns 1-24 of the plates to quench the enzyme reaction. The plates are incubated at room temperature for 30 minutes. Still in the dark, 10 μL/well of the Acceptor Bead solution is also added to Columns 1-24 of the plates. The plates are then incubated in the dark for 1.5 hours.

T1 sequence (P42336 whole entry): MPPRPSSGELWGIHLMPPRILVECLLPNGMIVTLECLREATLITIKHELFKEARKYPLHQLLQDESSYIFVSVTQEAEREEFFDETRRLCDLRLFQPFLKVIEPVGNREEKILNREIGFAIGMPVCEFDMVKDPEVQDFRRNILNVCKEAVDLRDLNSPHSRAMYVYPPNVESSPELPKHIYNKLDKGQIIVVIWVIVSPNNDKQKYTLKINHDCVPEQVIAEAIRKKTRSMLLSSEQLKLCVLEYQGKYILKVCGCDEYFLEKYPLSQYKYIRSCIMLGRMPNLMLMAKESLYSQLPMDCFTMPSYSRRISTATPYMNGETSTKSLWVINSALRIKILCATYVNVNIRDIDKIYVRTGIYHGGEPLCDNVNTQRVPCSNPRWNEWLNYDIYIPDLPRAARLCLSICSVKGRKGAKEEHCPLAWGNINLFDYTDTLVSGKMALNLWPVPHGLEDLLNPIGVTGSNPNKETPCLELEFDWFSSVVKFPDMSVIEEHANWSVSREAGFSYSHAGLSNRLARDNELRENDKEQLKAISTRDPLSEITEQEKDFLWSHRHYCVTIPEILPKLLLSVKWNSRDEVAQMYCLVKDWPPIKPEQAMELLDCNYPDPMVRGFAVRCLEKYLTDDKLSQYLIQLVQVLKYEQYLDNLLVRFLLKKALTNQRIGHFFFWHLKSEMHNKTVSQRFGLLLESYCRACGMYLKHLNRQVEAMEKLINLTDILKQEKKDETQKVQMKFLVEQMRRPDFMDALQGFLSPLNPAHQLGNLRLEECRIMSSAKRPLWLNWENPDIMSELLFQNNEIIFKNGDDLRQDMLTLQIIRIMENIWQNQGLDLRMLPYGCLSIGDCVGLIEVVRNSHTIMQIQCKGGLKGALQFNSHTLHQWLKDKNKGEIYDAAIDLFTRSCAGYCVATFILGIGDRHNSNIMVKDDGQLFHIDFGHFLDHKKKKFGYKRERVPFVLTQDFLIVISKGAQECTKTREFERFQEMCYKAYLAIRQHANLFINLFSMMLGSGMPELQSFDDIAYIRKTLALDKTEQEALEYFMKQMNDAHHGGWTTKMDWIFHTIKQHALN
T1 sequence (P27986 whole entry partner): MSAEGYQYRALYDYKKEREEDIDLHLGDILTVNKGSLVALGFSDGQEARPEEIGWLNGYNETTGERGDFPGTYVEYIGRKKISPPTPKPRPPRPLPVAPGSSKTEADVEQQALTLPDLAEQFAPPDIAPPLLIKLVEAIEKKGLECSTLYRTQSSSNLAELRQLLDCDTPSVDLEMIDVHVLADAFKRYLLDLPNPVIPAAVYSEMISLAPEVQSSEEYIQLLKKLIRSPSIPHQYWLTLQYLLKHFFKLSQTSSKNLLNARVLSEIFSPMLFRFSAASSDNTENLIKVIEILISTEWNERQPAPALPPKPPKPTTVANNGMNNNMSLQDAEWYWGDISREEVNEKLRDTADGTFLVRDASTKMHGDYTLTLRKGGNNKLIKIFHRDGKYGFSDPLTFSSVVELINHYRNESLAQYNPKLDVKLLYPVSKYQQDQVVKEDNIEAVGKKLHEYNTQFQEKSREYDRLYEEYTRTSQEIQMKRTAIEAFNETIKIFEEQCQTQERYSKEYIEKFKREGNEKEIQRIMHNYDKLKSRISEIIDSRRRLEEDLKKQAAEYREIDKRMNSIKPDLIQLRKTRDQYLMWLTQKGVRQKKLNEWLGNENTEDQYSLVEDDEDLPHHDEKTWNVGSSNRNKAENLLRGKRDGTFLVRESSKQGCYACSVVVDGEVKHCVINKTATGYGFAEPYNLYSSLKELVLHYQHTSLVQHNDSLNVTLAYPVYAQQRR

SMILES	pIC50 [1]	pIC50 [2]
Cc1nc(N)nc(-c2c(Nc3cc[nH]n3)nc3ccccn23)n1 [Cpd 1, 3-(4-amino-6-methyl-1,3,5-triazin-2-yl)-N-(1H-pyrazol-3-yl)imidazo[1,2-a]pyridin-2-amine]	7.92	6.09
Cc1nc(-c2c(Nc3cccc(O)c3)nc3ccccn23)c2nc[nH]c2n1 [Cpd 2]	7.62	7.70
CNc1nc(C)nc(-c2c(Nc3cc[nH]n3)nc3ccccn23)n1 [Cpd 3, 3-(4-methyl-6-(methylamino)-1,3,5-triazin-2-yl)-N-(1H-pyrazol-3-yl)imidazo[1,2-a]pyridin-2-amine]	7.28	6.09
Cc1nc(N)cc(-c2c(Nc3cc[nH]n3)nc3cccnn23)n1 [Cpd 7, 3-(6-amino-2-methylpyrimidin-4-yl)-N-(1H-pyrazol-3-yl)imidazo[1,2-b]pyridazin-2-amine]	7.96	6.08
Cc1nc(N)cc(-n2nc(C(=O)Nc3cccnc3)cc2Nc2ccn[nH]2)n1 [Cpd 11, 5-(1H-pyrazol-5-ylamino)-1-(6-amino-2-methylpyrimidin-4-yl)-N-(pyridin-3-yl)-1H-pyrazole-3-carboxamide]	6.09	6.18
Cc1nc(N)cc(-n2nc(C(=O)N3CCOCC3)cc2Nc2ccn[nH]2)n1 [Cpd 13, (5-(1H-pyrazol-5-ylamino)-1-(6-amino-2-methylpyrimidin-4-yl)-1H-pyrazol-3-yl)(morpholino)methanone]	7.00	5.95
CNC(=O)c1cc(Nc2ccn[nH]2)n(-c2cc(N)nc(C)n2)n1 [Cpd 14, 5-(1H-pyrazol-5-ylamino)-1-(6-amino-2-methylpyrimidin-4-yl)-N-methyl-1H-pyrazole-3-carboxamide]	6.92	5.63
CCOC(=O)c1cc(Nc2cc[nH]n2)n(-c2cc(N)nc(C)n2)n1 [Cpd 15, ethyl 5-(1H-pyrazol-3-ylamino)-1-(6-amino-2-methylpyrimidin-4-yl)-1H-pyrazole-3-carboxylate]	6.84	6.47
Cc1nc(N)cc(-n2nc(C(=O)NC3CC3)cc2Nc2cc[nH]n2)n1 [Cpd 16, 5-(1H-pyrazol-5-ylamino)-1-(6-amino-2-methylpyrimidin-4-yl)-N-cyclopropyl-1H-pyrazole-3-carboxamide]	6.42	5.62
Cc1cc(Nc2cc[nH]n2)n(-c2cc(N)nc(C)n2)n1 [Cpd 18, 6-(5-(1H-pyrazol-3-ylamino)-3-methyl-1H-pyrazol-1-yl)-2-methylpyrimidin-4-amine]	6.07	5.49
COc1ccc(Nc2cc(C)nn2-c2cc(N)nc(C)n2)cn1 [Cpd 24, 6-(5-(6-methoxypyridin-3-ylamino)-3-methyl-1H-pyrazol-1-yl)-2-methylpyrimidin-4-amine]	< 4.30	6.10
Cc1nc(Nc2ccccc2F)cc(-c2c(Nc3cc[nH]n3)nc3cccnn23)n1 [Cpd 31, 3-(6-((2-fluorophenyl)amino)-2-methyl-4-pyrimidinyl)-N-1H-pyrazol-3-ylimidazo[1,2-b]pyridazin-2-amine]	5.21	5.56
COc1ccc(Nc2cc(-c3c(Nc4cc[nH]n4)nc4cccnn34)nc(C)n2)cc1 [Cpd 33]	5.55	6.18
Cc1nc(Nc2cccnn2)cc(-c2c(Nc3ccn(C)n3)nc3cccnn23)n1 [Cpd 34, N-(1-methyl-1H-pyrazol-3-yl)-3-(2-methyl-6-(3-pyridazinylamino)-4-pyrimidinyl)imidazo[1,2-b]pyridazin-2-amine]	6.36	6.12
Cc1nc(Nc2ccc(N3CCN(C)CC3)nn2)cc(-c2c(Nc3cc[nH]n3)nc3cccnn23)n1 [Cpd 35, 3-(2-methyl-6-((6-(4-methyl-1-piperazinyl)-3-pyridazinyl)amino)-4-pyrimidinyl)-N-1H-pyrazol-3-ylimidazo[1,2-b]pyridazin-2-amine]	8.00	6.96
CCNC(=O)Nc1ccc(Nc2nc3ccccn3c2-c2cc(N)nc(C)n2)cc1 [Cpd 40, 1-(4-((3-(6-amino-2-methyl-4-pyrimidinyl)imidazo[1,2-a]pyridin-2-yl)amino)phenyl)-3-ethylurea]	8.00	6.35
Cc1nc(N)cc(-c2c(Nc3ccc4cc[nH]c4n3)nc3ccccn23)n1 [Cpd 41, 3-(6-amino-2-methyl-4-pyrimidinyl)-N-1H-pyrrolo[2,3-b]pyridin-6-ylimidazo[1,2-a]pyridin-2-amine]	6.40	4.36
Cc1nc(Nc2ccc(N3CCOCC3)nn2)cc(-c2c(Nc3cc[nH]n3)nc3ccccn23)n1 [Cpd 49, 3-(2-methyl-6-((6-(4-morpholinyl)-3-pyridazinyl)amino)-4-pyrimidinyl)-N-1H-pyrazol-3-ylimidazo[1,2-a]pyridin-2-amine]	7.10	6.89
COCCOc1cnnc(Nc2cc(-c3c(Nc4ccc(NC(C)=O)cc4)nc4cccnn34)nc(C)n2)c1 [Cpd 53, N-(4-((3-(6-((5-(2-methoxyethoxy)-3-pyridazinyl)amino)-2-methyl-4-pyrimidinyl)imidazo[1,2-b]pyridazin-2-yl)amino)phenyl)acetamide]	9.00	7.70
Cc1nc(N)cc(-c2c(Nc3ccc(NC(=O)Nc4ccncc4)cc3)nc3ccccn23)n1 [Cpd 57, 1-(4-((3-(6-amino-2-methyl-4-pyrimidinyl)imidazo[1,2-a]pyridin-2-yl)amino)phenyl)-3-(4-pyridinyl)urea]	8.00	8.00
